{"source": "PubChem BioAssay AID602267", "about": "(Broad Institute, 2012)", "note": "Calls of active or inactive are those of the source.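 How the source made its calls: active means signal falls with dose and the fitted half-maximal concentration is at or below twice the top valid tested dose; inconclusive means flat curve with 30 to 70% inhibition, or poor fit; inactive means wrong direction, flat within 30%, or potency beyond limit.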", "data": [{"molecular_target": "Golgi-associated PDZ and coiled-coil motif-containing protein (Homo sapiens) (UniProt Q9HD26)", "test": "CAL PDZ domain peptide-binding inhibitors, dose response, biochemical, fluorescence polarization, untagged CAL PDZ, cherry-pick (AID 602267);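 on activity change, negative = inhibition: 0% = DMSO neutral wells and -100% = excess unlabeled competitor peptide wells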", "details": "purified CAL PDZ, TMR-peptide fluorescence polarization, 1 h", "units": {"AC50": "µM"}, "values": [{"compound": "O=C(O)CSc1cc(NS(=O)(=O)c2ccc(Cl)cc2)c2ccccc2c1O", "AC50": 32.9}]}, {"molecular_target": "Golgi-associated PDZ and coiled-coil motif-containing protein (Homo sapiens) (UniProt Q9HD26)", "test": "CAL PDZ domain peptide-binding inhibitors, dose response, biochemical, fluorescence polarization, untagged CAL PDZ, cherry-pick (AID 602267)", "details": "purified CAL PDZ, TMR-peptide fluorescence polarization, 1 h; at 16 µM (top of the series)", "values": [{"compound": "Oc1ccccc1N=Cc1c(O)ccc2oc3c(c12)CCCC3", "activity change, negative = inhibition": "inactive"}]}, {"molecular_target": "Golgi-associated PDZ and coiled-coil motif-containing protein (Homo sapiens) (UniProt Q9HD26)", "test": "CAL PDZ domain peptide-binding inhibitors, dose response, biochemical, fluorescence polarization, untagged CAL PDZ, cherry-pick (AID 602267)", "details": "purified CAL PDZ, TMR-peptide fluorescence polarization, 1 h; at 50 µM (top of the series)", "values": [{"compound": "O=C1OC2(CCCCC2)OC(=O)C1=CNc1nc2ccccc2s1", "activity change, negative = inhibition": "inactive"}, {"compound": "Cc1cc(C)c2nc(-c3ccncc3)cc(C(=O)N3CCN(Cc4ccccc4Cl)CC3)c2c1", "activity change, negative = inhibition": "inactive"}, {"compound": "CCOC(=O)c1c(CN2CCOCC2)oc2ccc(OC(C)=O)cc12", "activity change, negative = inhibition": "inactive"}, {"compound": "CCCCNC(=O)c1ccc(-n2c(=S)[nH]c3ccccc3c2=O)cc1", "activity change, negative = inhibition": "inactive"}, {"compound": "Cc1ccccc1CN(C)C(C)C(=O)Nc1ccccc1F", "note": "(stereo unspecified)", "activity change, negative = inhibition": "inactive"}, {"compound": "O=C(NCc1ccccc1)C1CCCN(c2nc3ccsc3c(=O)s2)C1", "note": "(stereo unspecified)", "activity change, negative = inhibition": "inactive"}, {"compound": "O=C(Nc1nc2ccccc2[nH]1)c1cc2ccccc2o1", "activity change, negative = inhibition": "inactive"}, {"compound": "Cc1[nH]c2ccccc2c1C(=O)CSc1nc2ncc(Cl)cc2[nH]1", "activity change, negative = inhibition": "inactive"}, {"compound": "CCCn1nnnc1NCc1cc(Br)ccc1OC", "activity change, negative = inhibition": "inactive"}, {"compound": "O=C(CCC(=O)N1CCN(c2ccccc2F)CC1)N1CCN(c2ccccc2)CC1", "activity change, negative = inhibition": "inactive"}, {"compound": "CCN(CC)CCC(=O)N1c2ccccc2CCc2ccc(NC(=O)OC(C)C)cc21", "activity change, negative = inhibition": "inactive"}, {"compound": "COc1ccc(NC(=O)c2ccc3c(c2)NC(=O)CO3)cc1OC", "activity change, negative = inhibition": "inactive"}, {"compound": "Cc1c(C)c2cc3c4c(oc3c(C)c2oc1=O)CCCC4", "activity change, negative = inhibition": "inactive"}, {"compound": "CCCNC(=O)C(=O)NCC1CCCN1CC", "note": "(stereo unspecified)", "activity change, negative = inhibition": "inactive"}, {"compound": "CN(C)C1(CNC(=O)C2CCC(=O)N(CCc3ccc(Cl)cc3)C2)CCCCC1", "note": "(stereo unspecified)", "activity change, negative = inhibition": "inactive"}, {"compound": "C=CCN1C(=O)/C(=C/c2ccsc2)SC1=S", "activity change, negative = inhibition": "inactive"}, {"compound": "CCOC(=O)c1ccc(N=C2SC(C(=O)NC)CC(=O)N2Cc2ccc(F)cc2)cc1", "note": "(stereo unspecified)", "activity change, negative = inhibition": "inactive"}, {"compound": "COc1ccc(-c2nc3ccccc3o2)cc1OC", "activity change, negative = inhibition": "inactive"}, {"compound": "CCOC(=O)CCC(=O)Nc1ccc(S(=O)(=O)N2CCC(C)CC2)cc1", "activity change, negative = inhibition": "inactive"}, {"compound": "O=C(NNS(=O)(=O)c1ccc(Cl)cc1)c1cccs1", "activity change, negative = inhibition": "inactive"}, {"compound": "CCOCCCNC(=S)N1CCN(c2nc(-c3ccccc3)cs2)CC1", "activity change, negative = inhibition": "inactive"}, {"compound": "CCOC(=O)C1CCN(C(=O)C2CC(=O)N(c3ccc4c(c3)OCCO4)C2)CC1", "note": "(stereo unspecified)", "activity change, negative = inhibition": "inactive"}, {"compound": "Cc1ccccc1S(=O)(=O)NC(=NCc1ccc(F)cc1)c1ccccc1", "activity change, negative = inhibition": "inactive"}, {"compound": "O=[N+]([O-])c1ccc(N/N=C/c2cccnc2)cc1", "activity change, negative = inhibition": "inactive"}, {"compound": "CC1=C(C#N)C(Nc2ccc(Cl)cn2)(C(F)(F)F)C(=O)N1", "note": "(stereo unspecified)", "activity change, negative = inhibition": "inactive"}, {"compound": "c1ccc(C(c2ccccc2)c2cccnc2)cc1", "activity change, negative = inhibition": "inactive"}, {"compound": "CN(c1nc(-c2ccc(Br)cc2)cs1)C1CCS(=O)(=O)C1", "note": "(stereo unspecified)", "activity change, negative = inhibition": "inactive"}, {"compound": "Cc1cccc(N=Nc2c(O)[nH]c3ccc(F)cc23)c1", "activity change, negative = inhibition": "inactive"}, {"compound": "CCc1nc(SCC(=O)c2ccccc2)c2c(=O)n(C)c(=O)n(C)c2n1", "activity change, negative = inhibition": "inactive"}, {"compound": "CCCCN1CC(O)=C(c2nc(-c3ccc(Cl)cc3)cs2)C1=N", "activity change, negative = inhibition": "inactive"}, {"compound": "CC(=O)N1CCN(c2ccc(NC(=O)c3cccc(Cl)c3Cl)cc2)CC1", "activity change, negative = inhibition": "inactive"}, {"compound": "O=C(NC(=S)NCCCN1CCOCC1)c1ccc(Br)cc1", "activity change, negative = inhibition": "inactive"}, {"compound": "O=C(N/N=C/c1ccc(OCc2ccccc2)cc1)c1ccc(O)cc1", "activity change, negative = inhibition": "inactive"}, {"compound": "O=C(c1c(Cl)cccc1Cl)N1CCCCCC1", "activity change, negative = inhibition": "inactive"}, {"compound": "COc1ccc(C(=O)Nc2ccc(S(=O)(=O)N3CCCC3)cc2)cc1[N+](=O)[O-]", "activity change, negative = inhibition": "inactive"}, {"compound": "COc1cc(NS(=O)(=O)c2ccc(NC(=S)Nc3ccccc3)cc2)nc(OC)n1", "activity change, negative = inhibition": "inactive"}, {"compound": "O=C(O)CCCC(=O)N1N=C(c2ccccc2)CC1c1ccc2c(c1)OCO2", "note": "(stereo unspecified)", "activity change, negative = inhibition": "inactive"}, {"compound": "C/C(CC(=O)Nc1ccc(C)c(Cl)c1)=N\\NC(=O)Cc1cnc(N)s1", "activity change, negative = inhibition": "inactive"}, {"compound": "COCC(=O)Nc1ccc2nc3n(c(=O)c2c1)CCCCC3", "activity change, negative = inhibition": "inactive"}, {"compound": "Cc1cccc(N(Cc2cc(=O)[nH]c3ccccc23)C(=O)C(C)C)c1", "activity change, negative = inhibition": "inactive"}, {"compound": "Cc1cccc(-n2nc(C)c3c2NC2=C(C(=O)CCC2)C3c2ccccn2)c1", "note": "(stereo unspecified)", "activity change, negative = inhibition": "inactive"}, {"compound": "COc1ccc2ccn(S(=O)(=O)c3ccccc3)c2c1", "activity change, negative = inhibition": "inactive"}, {"compound": "O=C1c2ccccc2C(O)N1c1ccccc1", "note": "(stereo unspecified)", "activity change, negative = inhibition": "inactive"}, {"compound": "CC(=O)Nc1ccc(Nc2ccc3nonc3c2[N+](=O)[O-])cc1", "activity change, negative = inhibition": "inactive"}, {"compound": "COC(=O)C1CCN(C(=O)/C(C)=C\\c2ccccc2)CC1", "activity change, negative = inhibition": "inactive"}, {"compound": "CCN(CC)CCn1c(SCC(=O)NCc2ccccc2)nc2c(sc3ccccc32)c1=O", "activity change, negative = inhibition": "inactive"}, {"compound": "O=C(NCC(=O)N1CCC(N2CCCCC2)CC1)C1CCCCC1", "activity change, negative = inhibition": "inactive"}, {"compound": "CN(C)c1ccc(C=c2c3ccccc3n3c2cc(-c2ccccc2)[n+]3C)cc1", "activity change, negative = inhibition": "inactive"}, {"compound": "CCN(CC)S(=O)(=O)c1ccc(/C=C/C(=O)OCC(=O)N(C)C)cc1", "activity change, negative = inhibition": "inactive"}, {"compound": "Cc1ccc(-c2nc3ccccc3c(=O)o2)cc1", "activity change, negative = inhibition": "inactive"}, {"compound": "COCc1cc(C)nc(SCc2ccccc2)c1C#N", "activity change, negative = inhibition": "inactive"}, {"compound": "O=C(NC1CCCCCCC1)c1cc([N+](=O)[O-])ccc1Cl", "activity change, negative = inhibition": "inactive"}, {"compound": "O=C(c1cc(Br)ccc1Cl)N1CCN(c2ccccn2)CC1", "activity change, negative = inhibition": "inactive"}, {"compound": "CN(C)c1ccc(P(=O)(OC2CCCCC2)C(O)c2cccnc2)cc1", "note": "(stereo unspecified)", "activity change, negative = inhibition": "inactive"}, {"compound": "COc1ccc(Br)c(C(=O)NC2CCCC2)c1", "activity change, negative = inhibition": "inactive"}, {"compound": "O=C(NCC1CCCO1)c1cn(-c2ccccc2)nc1-c1ccc(F)cc1", "note": "(stereo unspecified)", "activity change, negative = inhibition": "inactive"}, {"compound": "CC(=O)N1CCN(c2ccc(NC(=O)C(c3ccccc3)c3ccccc3)cc2)CC1", "activity change, negative = inhibition": "inactive"}, {"compound": "Cn1c(=O)c2c(nc(SCC(=O)NCC3CCCO3)n2Cc2ccc(F)cc2)n(C)c1=O", "note": "(stereo unspecified)", "activity change, negative = inhibition": "inactive"}, {"compound": "Cc1c(NC(=O)CN2CCC(C(N)=O)CC2)cccc1[N+](=O)[O-]", "activity change, negative = inhibition": "inactive"}, {"compound": "CCOC(=O)/C=C/C(=O)OCC(=O)Nc1ccc([N+](=O)[O-])cc1", "activity change, negative = inhibition": "inactive"}, {"compound": "O=C(O)CC1(CC(=O)Nc2ccc(Br)cc2)CCCCC1", "activity change, negative = inhibition": "inactive"}, {"compound": "Cc1cccc(C(=O)Nc2nnc(COc3ccccc3)s2)c1", "activity change, negative = inhibition": "inactive"}, {"compound": "CC1CCC(NC(=O)C2CCN(c3cnccn3)CC2)CC1", "note": "(stereo unspecified)", "activity change, negative = inhibition": "inactive"}, {"compound": "O=C(NCCN1C(=O)S/C(=C\\c2ccc(Cl)c(Cl)c2)C1=O)C1COc2ccccc2O1", "note": "(stereo unspecified)", "activity change, negative = inhibition": "inactive"}, {"compound": "Cc1cc(NC(=O)CSc2nnc(-c3ccccc3)c(-c3ccccc3)n2)no1", "activity change, negative = inhibition": "inactive"}, {"compound": "O=C(CNCc1ccccc1)Nc1ccc(F)cc1", "activity change, negative = inhibition": "inactive"}, {"compound": "O=C(NCc1ccc(Cl)cc1)C(=O)NCC1OCCN1C(=O)c1ccc(Cl)cc1", "note": "(stereo unspecified)", "activity change, negative = inhibition": "inactive"}, {"compound": "CN(Cc1nccn1C)C(=O)c1cc(COc2ccc3ncccc3c2)on1", "activity change, negative = inhibition": "inactive"}, {"compound": "COc1cc(N(C)C)ccc1C=c1c2ccccc2n2c1cc(-c1ccccc1)[n+]2C", "activity change, negative = inhibition": "inactive"}, {"compound": "O=C(c1ccccc1Cl)N(Cc1ccc(Cl)c(Cl)c1)N1C(=O)CCCC1=O", "activity change, negative = inhibition": "inactive"}, {"compound": "COc1ccc(CN2CN(C3CCCC3)CSC2=S)cc1", "activity change, negative = inhibition": "inactive"}, {"compound": "Cc1sc2ncn(CC(=O)NCCCC(=O)N3CCN(Cc4ccc5c(c4)OCO5)CC3)c(=O)c2c1C", "activity change, negative = inhibition": "inactive"}, {"compound": "CCOc1ccc(C(=O)NC2CC3CCCC(C2)N3Cc2ccccc2)cc1", "note": "(stereo unspecified)", "activity change, negative = inhibition": "inactive"}, {"compound": "CCN(CC)Cc1c(O)ccc2c1O/C(=C\\C=C\\c1ccccc1)C2=O", "activity change, negative = inhibition": "inactive"}, {"compound": "CC1CCN(CCCNC(=O)c2ccc3c(=O)n(Cc4ccc(Cl)cc4)c(=S)[nH]c3c2)CC1", "activity change, negative = inhibition": "inactive"}, {"compound": "Cc1nn(C)cc1CN(C)C(=O)c1nn2c(c1Br)NC(c1cccs1)CC2C(F)(F)F", "note": "(stereo unspecified)", "activity change, negative = inhibition": "inactive"}, {"compound": "CCN(CC)S(=O)(=O)c1cc(C(=O)Oc2ccccc2OC)ccc1OC", "activity change, negative = inhibition": "inactive"}, {"compound": "O=C(Nc1ccccc1Cl)Nc1cccnc1Cl", "activity change, negative = inhibition": "inactive"}, {"compound": "COc1ccccc1NC(=O)c1c([N+](=O)[O-])cnn1C", "activity change, negative = inhibition": "inactive"}, {"compound": "CCOc1ccc(C2=Nn3c(nnc3-c3ccco3)SC2)cc1", "activity change, negative = inhibition": "inactive"}, {"compound": "Cc1c(Cl)c(C(F)(F)F)nn1CC(=O)NCc1ccco1", "activity change, negative = inhibition": "inactive"}, {"compound": "O=C(NNC(=O)c1ccc(Cl)c(Cl)c1)c1cccnc1", "activity change, negative = inhibition": "inactive"}, {"compound": "CCCCN(CCCC)CCNC(=O)c1ccc2nc(-c3ccccc3NC(C)=O)c(=O)[nH]c2c1", "activity change, negative = inhibition": "inactive"}, {"compound": "O=C1C=C(c2ccccc2)C(c2ccccc2)C1", "note": "(stereo unspecified)", "activity change, negative = inhibition": "inactive"}, {"compound": "CCOC(=O)/C(N=Nc1ccc2c(c1)OCO2)=C(\\C)O", "activity change, negative = inhibition": "inactive"}, {"compound": "COc1ccccc1C(=O)Nc1ccc2c(c1)CN(C(=O)CSC)CC2", "activity change, negative = inhibition": "inactive"}, {"compound": "COc1ccc(-n2c(=S)[nH]c3c(sc(=S)n3-c3ccccc3)c2=O)c(OC)c1", "activity change, negative = inhibition": "inactive"}, {"compound": "O=S(=O)(/N=C(/Nc1ccc(Cl)c(S(=O)(=O)N2CCOCC2)c1)c1ccc(F)cc1)c1ccccc1", "activity change, negative = inhibition": "inactive"}, {"compound": "O=C(NCc1ccccc1)c1cc2ccc(O)cc2oc1=O", "activity change, negative = inhibition": "inactive"}]}]}
